Reference: patent US20220306609A1, “BICYCLIC COMPOUNDS AS ANDROGEN RECEPTOR MODULATORS” (NIDO BIOSCIENCES, INC., priority 2021, published 2022)

Target: T1, androgen receptor (AR) (Homo sapiens, UniProt P10275, T878A)
T1 construct: LNCaP cells expressing ARR2PB-FireflyLuc and CMV-RenillaLuc; endogenous in cells; host or cells: LNCaP
T1 sequence (P10275 1-920 T878A): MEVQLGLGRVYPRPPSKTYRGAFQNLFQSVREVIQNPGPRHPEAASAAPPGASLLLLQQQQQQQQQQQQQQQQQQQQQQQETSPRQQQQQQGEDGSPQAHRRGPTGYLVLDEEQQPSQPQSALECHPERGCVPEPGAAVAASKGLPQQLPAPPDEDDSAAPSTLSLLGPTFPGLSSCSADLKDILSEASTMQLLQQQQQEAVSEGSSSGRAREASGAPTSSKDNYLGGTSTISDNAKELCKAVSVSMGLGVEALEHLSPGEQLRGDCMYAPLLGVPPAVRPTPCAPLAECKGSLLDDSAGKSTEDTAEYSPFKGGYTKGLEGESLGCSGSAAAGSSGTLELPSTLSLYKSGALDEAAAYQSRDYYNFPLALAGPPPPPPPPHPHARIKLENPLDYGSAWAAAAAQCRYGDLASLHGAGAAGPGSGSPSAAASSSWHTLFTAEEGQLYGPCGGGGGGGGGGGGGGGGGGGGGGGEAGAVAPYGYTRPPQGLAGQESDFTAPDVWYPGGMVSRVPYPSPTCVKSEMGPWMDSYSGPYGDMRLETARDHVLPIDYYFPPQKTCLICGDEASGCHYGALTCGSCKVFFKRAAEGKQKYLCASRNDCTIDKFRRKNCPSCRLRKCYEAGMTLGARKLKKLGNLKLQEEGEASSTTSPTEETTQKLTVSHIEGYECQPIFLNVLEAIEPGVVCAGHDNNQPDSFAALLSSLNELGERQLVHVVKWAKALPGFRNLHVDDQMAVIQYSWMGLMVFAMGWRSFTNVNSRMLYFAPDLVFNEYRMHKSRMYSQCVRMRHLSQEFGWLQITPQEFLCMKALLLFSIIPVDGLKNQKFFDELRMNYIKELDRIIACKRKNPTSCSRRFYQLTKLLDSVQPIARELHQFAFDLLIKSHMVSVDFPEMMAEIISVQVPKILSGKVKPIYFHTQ
Test: LNCaP ARR2PB-FireflyLuc / CMV-RenillaLuc reporter assay, antagonist mode
Assay type: cell-based
Details: LNCaP cells expressing ARR2PB-FireflyLuc and CMV-RenillaLuc; +/- 0.5 nM DHT; 48 h at 37° C
Protocol: LNCaP cells expressing ARR2PB-FireflyLuc and CMV-RenillaLuc were treated with indicated concentrations of test compounds, enzalutamide ([…]), or DHT (positive control)+/−0.5 nM DHT for 48 h at 37° C. Fluorescent signals were read with the ImageXpress Micro Confocal System. Remaining activity (antagonist mode) was calculated as % Remaining Activity=100×[(ReadSample−[…])/(HCave−LCave)] where HC is cells treated with 0.5 nM DHT only and LC is cells treated with 10 uM enzalutamide+0.5 nM DHT. Activation (agonist mode) was calculated as % Activation=100×[(ReadSample−LCave)/(HCave−LCave)] where HC is cells treated with 1 uM DHT and LC is cells treated with DMSO. Dose response curves and IC50 values were calculated using non-linear regression analysis in XLfit.
The designation “A” indicates an IC50 value of >10 μM, “B” indicates an IC50 value between 1 μM and 10 μM; “C” indicates an IC50 value between 100 nM and 1 μM; and “D” indicates an IC50 value of less than 100 nM.

| SMILES | IC50 [nM] |
| --- | --- |
| CCN1N=C(c2c[nH]c3c(C#N)cccc23)CCC1=O [Compound 001, 3-(1-ethyl-6-oxo-4,5-dihydropyridazin-3-yl)-1H-indole-7-carbonitrile] | 100 to 1000 |
| CCn1cc(-c2c[nH]c3c(C#N)cccc23)cn1 [Compound 007, 3-(1-ethylpyrazol-4-yl)-1H-indole-7-carbonitrile] | 1000 to 10000 |
| CCn1ccc(-c2c[nH]c3c(C#N)cccc23)n1 [Compound 008, 3-(1-ethylpyrazol-3-yl)-1H-indole-7-carbonitrile] | < 100 |
| N#Cc1cccc2c(-c3ccn(C4CC4)n3)c[nH]c12 [Compound 009, 3-(1-cyclopropylpyrazol-3-yl)-1H-indole-7-carbonitrile] | 100 to 1000 |
| CC(C)(O)Cn1ccc(-c2c[nH]c3c(C#N)cccc23)n1 [Compound 010, 3-[1-(2-hydroxy-2-methylpropyl)pyrazol-3-yl]-1H-indole-7-carbonitrile] | > 10000 |
| CCn1nc(C)cc1-c1c[nH]c2c(C#N)cccc12 [Compound 012, 3-(2-ethyl-5-methylpyrazol-3-yl)-1H-indole-7-carbonitrile] | < 100 |

The remaining lines, values ahead:

| IC50 [nM] | SMILES |
| --- | --- |
| < 100 | CCn1nc(-c2c[nH]c3c(C#N)cccc23)ccc1=O [Compound 002, 3-(1-ethyl-6-oxopyridazin-3-yl)-1H-indole-7-carbonitrile] |
| > 10000 | CCn1nc(-c2c[nH]c3c(Cl)nccc23)ccc1=O [Compound 003, 6-[7-chloro-1H-pyrrolo[2,3-c]pyridin-3-yl]-2-ethylpyridazin-3-one] |
| 100 to 1000 | N#Cc1cccc2c(-c3ccc(=O)n(CC(F)F)n3)c[nH]c12 [Compound 004, 3-[1-(2,2-difluoroethyl)-6-oxopyridazin-3-yl]-1H-indole-7-carbonitrile] |
| 1000 to 10000 | CCn1nc(-c2c[nH]c3c(C#N)cccc23)c(C)cc1=O [Compound 005, 3-(1-ethyl-4-methyl-6-oxopyridazin-3-yl)-1H-indole-7-carbonitrile] |
| 1000 to 10000 | CCn1nc(-c2c[nH]c3c(C#N)cccc23)cc(OC)c1=O [Compound 006, 3-(1-ethyl-5-methoxy-6-oxopyridazin-3-yl)-1H-indole-7-carbonitrile] |
| 100 to 1000 | CCn1nc(-c2c[nH]c3c(C#N)cccc23)cc1C [Compound 011, 3-(1-ethyl-5-methylpyrazol-3-yl)-1H-indole-7-carbonitrile] |
